Reference: patent US9149038B2, “4-amino-6-(heterocyclic)picolinates and 6-amino-2-(heterocyclic)pyrimidine-4-carboxylates and their use as herbicides” (Dow AgroSciences LLC, priority 2013, dated 2015)
Where two headings read alike, the source gives them in different places.

Tests used:
Assay type in all cases: in vivo
[1] = tested on: Key Broadleaf and Grass Weed as well as Crop Species; assay: Post-Emergent Test I: postemergent herbicidal activity, visual phytotoxicity rating 10 days after treatment (Table 5); settings: for Visual Growth Reduction (%) 10 Days After Application ECHCG: barnyardgrass (Echinochloa crus-galli); for pest or weed control at 4000 g/ha / pest or weed control at 3960 g/ha: post-emergence, 240 h, 10 days after application
Method in brief: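 Plants grown 8-12 d in greenhouse (16 h photoperiod, 24-29° C.) before spraying compounds in acetone-DMSO/water-isopropanol-crop oil concentrate with 0.02% Triton X-155 at roughly 4.0, 2.0, 1.0 and 0.5 kg/ha. Injury scored visually 10 days after treatment, 0 (no activity) to 100 (complete plant death).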

[2] = tested on: Key Broadleaf Weed and Crop Species; assay: Post-Emergent Test II: postemergent herbicidal activity, visual rating after 14 d (Table 7); settings: post-emergence, 336 h; for pest or weed control at 35 g/ha: 35 g ai/ha; for pest or weed control at 70 g/ha: 70 g ai/ha; for pest or weed control at 140 g/ha: 140 g ai/ha
Method in brief: (§1)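 Greenhouse-grown plants at the first or second true leaf stage (7-21 d, ~15 h photoperiod, 23-29° C day) were sprayed with compound in acetone/DMSO-based aqueous spray containing crop oil concentrate and Triton X-155 at 187 L/ha. Injury versus untreated plants was rated visually after 14 d on a 0-100 scale.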

[3] = tested on: Key Grass and Sedge Weeds as well as Grass Crops; assay: Post-Emergent Test II: postemergent herbicidal activity, visual rating after 14 d (Table 8); settings: post-emergence, 336 h; for pest or weed control at 35 g/ha: 35 g ai/ha; for pest or weed control at 70 g/ha: 70 g ai/ha; for pest or weed control at 140 g/ha: 140 g ai/ha
Method in brief: as §1

[4] = lambsquarters (Chenopodium album), read-out: Visual Growth Reduction (%) 14 Days After Application CHEAL
[5] = oilseed rape, canola (Brassica napus), read-out: Visual Growth Reduction (%) 14 Days After Application BRSNN
[6] = redroot pigweed (Amaranthus retroflexus), read-out: Visual Growth Reduction (%) 14 Days After Application AMARE
[7] = sunflower (Helianthus annuus), read-out: Visual Growth Reduction (%) 14 Days After Application HELAN
[8] = velvetleaf (Abutilon theophrasti), read-out: Visual Growth Reduction (%) 14 Days After Application ABUTH
[9] = wild poinsettia (Euphorbia heterophylla), read-out: Visual Growth Reduction (%) 14 Days After Application EPHHL
[10] = barnyardgrass (Echinochloa crus-galli), read-out: Visual Growth Reduction (%) 14 Days After Application ECHCG
[11] = giant foxtail (Setaria faberi), read-out: Visual Growth Reduction (%) 14 Days After Application SETFA
[12] = maize, corn (Zea mays), read-out: Visual Growth Reduction (%) 14 Days After Application ZEAMX
[13] = rice (Oryza sativa), read-out: Visual Growth Reduction (%) 14 Days After Application ORYSA
[14] = wheat, spring (Triticum aestivum), read-out: Visual Growth Reduction (%) 14 Days After Application TRZAS
[15] = yellow nutsedge (Cyperus esculentus), read-out: Visual Growth Reduction (%) 14 Days After Application CYPES

Compound: Nc1c(Cl)c(C(=O)O)nc(-c2ccc3c(c2F)OC(F)(F)O3)c1Cl [Compound 5]
- Visual Growth Reduction (%) 10 Days After Application ECHCG ([1]; 4 kg ai/ha): G (0-29)
- pest or weed control at 4000 g/ha ([1]; giant foxtail (Setaria faberi), 4 kg ai/ha, read-out: Visual Growth Reduction (%) 10 Days After Application SETFA): 75 to 84%
- pest or weed control at 4000 g/ha ([1]; ivyleaf morningglory (Ipomoea hederecea), 4 kg ai/ha, read-out: Visual Growth Reduction (%) 10 Days After Application IPOHE): 95 to 100%
- pest or weed control at 4000 g/ha ([1]; sunflower (Helianthus annuus), 4 kg ai/ha, read-out: Visual Growth Reduction (%) 10 Days After Application HELAN): 95 to 100%
- pest or weed control at 4000 g/ha ([1]; wild oats (Avena fatua), 4 kg ai/ha, read-out: Visual Growth Reduction (%) 10 Days After Application AVEFA): 0 to 29%
- pest or weed control at 35 g/ha [2, 4]: 0 to 29%
- pest or weed control at 70 g/ha [2, 4]: 0 to 29%
- pest or weed control at 140 g/ha [2, 4]: 0 to 29%
- pest or weed control at 35 g/ha [2, 5]: 45 to 59%
- pest or weed control at 70 g/ha [2, 5]: 60 to 74%
- pest or weed control at 140 g/ha [2, 5]: 60 to 74%
- pest or weed control at 35 g/ha [2, 6]: 0 to 29%
- pest or weed control at 70 g/ha [2, 6]: 0 to 29%
- pest or weed control at 140 g/ha [2, 6]: 0 to 29%
- pest or weed control at 35 g/ha [2, 7]: 30 to 44%
- pest or weed control at 70 g/ha [2, 7]: 30 to 44%
- pest or weed control at 140 g/ha [2, 7]: 45 to 59%
- pest or weed control at 35 g/ha [2, 8]: 0 to 29%
- pest or weed control at 70 g/ha [2, 8]: 0 to 29%
- pest or weed control at 140 g/ha [2, 8]: 0 to 29%
- pest or weed control at 35 g/ha [2, 9]: 0 to 29%
- pest or weed control at 70 g/ha [2, 9]: 0 to 29%
- pest or weed control at 140 g/ha [2, 9]: 0 to 29%
- pest or weed control at 35 g/ha [3, 10]: 0 to 29%
- pest or weed control at 70 g/ha [3, 10]: 0 to 29%
- pest or weed control at 140 g/ha [3, 10]: 0 to 29%
- pest or weed control at 35 g/ha [3, 11]: 0 to 29%
- pest or weed control at 70 g/ha [3, 11]: 0 to 29%
- pest or weed control at 140 g/ha [3, 11]: 0 to 29%
- pest or weed control at 35 g/ha [3, 12]: 0 to 29%
- pest or weed control at 70 g/ha [3, 12]: 0 to 29%
- pest or weed control at 140 g/ha [3, 12]: 0 to 29%
- pest or weed control at 35 g/ha [3, 13]: 0 to 29%
- pest or weed control at 70 g/ha [3, 13]: 0 to 29%
- pest or weed control at 140 g/ha [3, 13]: 0 to 29%
- pest or weed control at 35 g/ha [3, 14]: 0 to 29%
- pest or weed control at 70 g/ha [3, 14]: 0 to 29%
- pest or weed control at 140 g/ha [3, 14]: 0 to 29%
- pest or weed control at 35 g/ha [3, 15]: 0 to 29%
- pest or weed control at 70 g/ha [3, 15]: 0 to 29%
- pest or weed control at 140 g/ha [3, 15]: 0 to 29%

Compound: COC(=O)c1nc(-c2cccc3c2OC(F)(F)O3)c(F)c(N)c1Cl [Compound 73]
- Visual Growth Reduction (%) 10 Days After Application ECHCG ([1]; 3.96 kg ai/ha): G (0-29)
- pest or weed control at 3960 g/ha ([1]; giant foxtail (Setaria faberi), 3.96 kg ai/ha, read-out: Visual Growth Reduction (%) 10 Days After Application SETFA): 0 to 29%
- pest or weed control at 3960 g/ha ([1]; ivyleaf morningglory (Ipomoea hederecea), 3.96 kg ai/ha, read-out: Visual Growth Reduction (%) 10 Days After Application IPOHE): 75 to 84%
- pest or weed control at 3960 g/ha ([1]; sunflower (Helianthus annuus), 3.96 kg ai/ha, read-out: Visual Growth Reduction (%) 10 Days After Application HELAN): 95 to 100%
- pest or weed control at 3960 g/ha ([1]; wild oats (Avena fatua), 3.96 kg ai/ha, read-out: Visual Growth Reduction (%) 10 Days After Application AVEFA): 0 to 29%
- pest or weed control at 35 g/ha [2, 4]: 95 to 100%
- pest or weed control at 70 g/ha [2, 4]: 95 to 100%
- pest or weed control at 140 g/ha [2, 4]: 95 to 100%
- pest or weed control at 35 g/ha [2, 5]: 85 to 94%
- pest or weed control at 70 g/ha [2, 5]: 95 to 100%
- pest or weed control at 140 g/ha [2, 5]: 95 to 100%
- pest or weed control at 35 g/ha [2, 6]: 95 to 100%
- pest or weed control at 70 g/ha [2, 6]: 95 to 100%
- pest or weed control at 140 g/ha [2, 6]: 95 to 100%
- pest or weed control at 35 g/ha [2, 7]: 75 to 84%
- pest or weed control at 70 g/ha [2, 7]: 85 to 94%
- pest or weed control at 140 g/ha [2, 7]: 95 to 100%
- pest or weed control at 35 g/ha [2, 8]: 75 to 84%
- pest or weed control at 70 g/ha [2, 8]: 75 to 84%
- pest or weed control at 140 g/ha [2, 8]: 85 to 94%
- pest or weed control at 35 g/ha [2, 9]: 0 to 29%
- pest or weed control at 70 g/ha [2, 9]: 0 to 29%
- pest or weed control at 140 g/ha [2, 9]: 0 to 29%
- pest or weed control at 35 g/ha [3, 10]: 0 to 29%
- pest or weed control at 70 g/ha [3, 10]: 0 to 29%
- pest or weed control at 140 g/ha [3, 10]: 0 to 29%
- pest or weed control at 35 g/ha [3, 11]: 0 to 29%
- pest or weed control at 70 g/ha [3, 11]: 0 to 29%
- pest or weed control at 140 g/ha [3, 11]: 0 to 29%
- pest or weed control at 35 g/ha [3, 12]: 0 to 29%
- pest or weed control at 70 g/ha [3, 12]: 0 to 29%
- pest or weed control at 140 g/ha [3, 12]: 0 to 29%
- pest or weed control at 35 g/ha [3, 13]: 0 to 29%
- pest or weed control at 70 g/ha [3, 13]: 0 to 29%
- pest or weed control at 140 g/ha [3, 13]: 0 to 29%
- pest or weed control at 35 g/ha [3, 14]: 0 to 29%
- pest or weed control at 70 g/ha [3, 14]: 0 to 29%
- pest or weed control at 140 g/ha [3, 14]: 0 to 29%
- pest or weed control at 35 g/ha [3, 15]: 0 to 29%
- pest or weed control at 70 g/ha [3, 15]: 45 to 59%
- pest or weed control at 140 g/ha [3, 15]: 45 to 59%
